Results reported in patent US20180318383A1, “PEPTIDE HAVING NEURONAL LOSS PREVENTION AND REGENERATION EFFECTS, AND COMPOSITION CONTAINING SAME” (GEMVAX & KAEL CO., LTD., priority 2015, published 2018).

Legend:
Type in all cases: cell-based, rat
NSCs [1] = test: NSC proliferation (BrdU and CFU assays); conditions: 48 hours, BrdU
Procedure: NSCs were treated with different concentrations of PEP1 and 20 μM Aβ25-30 for 48 hours. Afterward, NSCs were cultured in bromodeoxyuridine (BrdU)-labeled media for 5 hours and observed using a kit. Cell division was evaluated by measuring absorbance at 370 nm and reference absorbance at 492 nm. All results were normalized based on a cell-free well.
A CFU assay was carried out by the following method. Briefly, 0.25×10^5 NSCs were plated in a 6-well plate, and treated with 20 μM Aβ25-30 and then with PEP1 at 1, 10 or 50 μM for 48 hours. The cells were washed with DPBS, and then the medium was exchanged with a fresh cell culture medium. Fourteen days later, the cells were washed again with DPBS, and stained with 0.5% crystal violet dissolved in methanol for 30 minutes at room temperature. Following staining, the plate was washed with DPBS and then dried. The number of colonies was observed using a stereoscopic microscope, and among these colonies, those smaller than 2 mm or faintly stained were removed.

NSCs [2] = test: Western blotting and immunostaining of intracellular proteins in NSCs
Description: For western blotting, the following antibodies were used: Ki67 (1:200 Abcam), P85a (1:1000, Millipore), pAKT (ser 473, 1:500, Cell Signaling Technology), GSK-3b (ser 9, 1:1000. Santa Cruz Biotechnology), HSTF-1 (1:1000, Santa Cruz Biotechnology), anti-B cell lymphoma-2 (1:1000, Cell Signaling Technology), HMGB-1 (1:500, Cell Signaling Technology), Bax (1:1000, Cell Signaling Technology), Cytosolic cytochrome C (1:200, Cell Signaling Technology), Cleaved caspase 3 (Asp175, 1: 1000, Cell Signaling Technology), c-Myc (1: 1000, Cell Signaling Technology), GFP (1: 1000, Cell Signaling Technology), hTERT (1:500, Santa Cruz Biotechnology), and rTERT (1:500, Santa Cruz Biotechnology).
To confirm an intracellular signaling system, western blotting was performed after 48-hour treatment.
To obtain the mitochondria and a cytoplasmic protein, mitochondria/intracellular protein isolation kits were used (Abcam). All blots were observed using an ECL solution, and observed images were analyzed using an analysis program.
Immunostaining was carried out to confirm intracellular expression and locations. For immunostaining, the following antibodies were used: Ki67 (1:100 Abcam), rabbit anti-doublecortin (1 mg/mL; Abcam), rabbit anti-glial fibrillary acidic protein (GFAP) (1:5000; Abcam), rabbit anti-Tuj1 (1 mg/mL; Abcam), mouse anti-GalC (1 mg/mL; Millipore), and rabbit anti-HMGB1 (1:100; Cell Signaling Technology).
Data was observed using an Olympus fluorescence microscope, and suitable fluorescence was used.

NSCs [3] = test: Proteomics and antibody microarray of NSCs; conditions: 20 μM Aβ25-35 + 10 μM PEP1, 48 hours, antibody microarray
Procedure: The cultured NSCs were washed with cold PBS twice, and disrupted in a sample lysis buffer using a sonicator for 10 seconds. In addition, the cells were disrupted again for a further 1 hour at room temperature. After centrifugation at 15° C. and 15000 g for 1 hour, a non-water-soluble sample was eliminated, and only water-soluble samples were subjected to two-dimensional electrophoresis. A protein concentration was quantified by a Bradford method.
200 μg of a protein sample was loaded on an Immobiline DryStrip gel. […] was performed at 20° C. For electron focusing, a voltage was increased from 150 volts to 3500 volts over 3 hours to allow the sample to enter the gel. Before entering two-dimensionally, the sample was cultured in an equilibration buffer for 10 minutes. […]
For quantitative analysis, images were analyzed with a PDQuest system. […]
To identify a protein through peptide mass fingerprinting, a protein spot was cleaved into smaller peptides using trypsin, well mixed with a-cyano-4-hydroxycinnamic acid in 50% acetonitrile/0.1% TFA, and then analyzed with MALDI-TOF. […]
For antibody microarray analysis, a panorama antibody cell signaling kit was used. […] Array slides were read using a scanner, and results from the obtained scans were analyzed using an analysis program.

NSCs [4] = test: Apoptosis of NSCs by DAPI and TUNEL staining; conditions: 20 μM Aβ25-35 + PEP1 up to 100 μM, 48 hours; p<0.05
Procedure: NSCs were placed onto collagen-coated glass coverslips with a diameter of 13 mm, and then treated in the manner described below: 1) […]; 2) treated with only 20 μM Aβ25-30; or 3) treated with 20 μM Aβ25-30 and PEP1 at each concentration (1, 10, 50, or 100 μM) for 48 hours.
The cells were washed with PBS and fixed with 4% paraformaldehyde for 20 minutes.
TUNEL staining is a method used to confirm apoptosis. To observe an intact, condensed or fragmented nucleus, the cells that have been stained with TUNEL were treated with 100 μg/ml DAPI for 20 minutes to stain the nucleus, and then mounted on a glass slide to which a DAPI-mixed mounting medium was applied.
The cells were observed under a fluorescence microscope and observed at excitation fluorescence wavelengths corresponding to DAPI and TUNEL.

Sequence: EARPALLTSRLRFIPK (homo sapiens) [PEP1, hTERT-derived peptide consisting of 16 amino acids, telomerase location [611-626]]
- proliferation of NSCs (NSCs [1]; 20 μM Aβ25-35 + PEP1 up to 100 μM, vs 20 μM Aβ25-35 only, CFU): gradually increased
- proliferation (NSCs [1]; NSCs, PEP1 alone 0-200 μM, up to 100 μM): not influenced
- apoptosis-associated proteins: Bax, cytoplasmic cytochrome C, cleaved caspase-3 (NSCs [2]; 20 μM Aβ25-35 + PEP1, 48 hours): significantly decreased
- ki67 (protein associated with proliferation ability) (NSCs [2]; 20 μM Aβ25-35 + PEP1, 48 hours): concentration-dependently increased
- proliferation-associated proteins: P85a PI3K, pAKT (Ser 473), phosphorylated GSK3-3b (Ser 9), HSTF-1, cytoplasmic HMGB-1 (NSCs [2]; 20 μM Aβ25-35 + PEP1, 48 hours): recovered
- HMGB1 expression in the cytoplasm (NSCs [2]; immunostaining, 20 μM Aβ25-35 + PEP1 co-treatment): concentration-dependently recovered
- phosphorylated proteins associated with proliferation (NSCs [3]): recovered
- degree of apoptosis of NSCs (NSCs [4]): significantly decreased
